Results on 23 compounds are retold here after patent US8283361B2 (AstraZeneca AB, priority 2008, dated 2012).

The structures appear in SMILES notation. Where a name gives a salt, the structure may show the parent alone.

A word on the inhibition: it is the change of the read-out against control, counted positive when it falls.

Chain of S. aureus GyrB ATPase (P0A0K8 whole entry): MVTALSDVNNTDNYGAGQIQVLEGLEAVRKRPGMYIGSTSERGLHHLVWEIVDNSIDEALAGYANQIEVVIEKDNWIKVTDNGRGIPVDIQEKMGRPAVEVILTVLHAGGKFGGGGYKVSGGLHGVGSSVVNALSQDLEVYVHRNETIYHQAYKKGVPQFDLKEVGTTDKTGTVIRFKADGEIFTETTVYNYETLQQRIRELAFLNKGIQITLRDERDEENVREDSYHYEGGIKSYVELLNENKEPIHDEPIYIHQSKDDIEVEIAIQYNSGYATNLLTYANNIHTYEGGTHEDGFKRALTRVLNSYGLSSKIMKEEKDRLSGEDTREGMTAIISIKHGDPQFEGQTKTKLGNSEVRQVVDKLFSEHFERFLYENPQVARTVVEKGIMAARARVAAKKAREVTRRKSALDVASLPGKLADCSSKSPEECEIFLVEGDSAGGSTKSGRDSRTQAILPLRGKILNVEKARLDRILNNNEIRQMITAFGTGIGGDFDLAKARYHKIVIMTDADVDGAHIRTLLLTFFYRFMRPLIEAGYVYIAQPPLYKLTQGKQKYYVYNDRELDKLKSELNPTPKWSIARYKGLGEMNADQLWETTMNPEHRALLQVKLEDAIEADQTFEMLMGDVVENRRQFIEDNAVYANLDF
Chain of S. aureus GyrB ATPase (P0AES4 whole entry, further chain): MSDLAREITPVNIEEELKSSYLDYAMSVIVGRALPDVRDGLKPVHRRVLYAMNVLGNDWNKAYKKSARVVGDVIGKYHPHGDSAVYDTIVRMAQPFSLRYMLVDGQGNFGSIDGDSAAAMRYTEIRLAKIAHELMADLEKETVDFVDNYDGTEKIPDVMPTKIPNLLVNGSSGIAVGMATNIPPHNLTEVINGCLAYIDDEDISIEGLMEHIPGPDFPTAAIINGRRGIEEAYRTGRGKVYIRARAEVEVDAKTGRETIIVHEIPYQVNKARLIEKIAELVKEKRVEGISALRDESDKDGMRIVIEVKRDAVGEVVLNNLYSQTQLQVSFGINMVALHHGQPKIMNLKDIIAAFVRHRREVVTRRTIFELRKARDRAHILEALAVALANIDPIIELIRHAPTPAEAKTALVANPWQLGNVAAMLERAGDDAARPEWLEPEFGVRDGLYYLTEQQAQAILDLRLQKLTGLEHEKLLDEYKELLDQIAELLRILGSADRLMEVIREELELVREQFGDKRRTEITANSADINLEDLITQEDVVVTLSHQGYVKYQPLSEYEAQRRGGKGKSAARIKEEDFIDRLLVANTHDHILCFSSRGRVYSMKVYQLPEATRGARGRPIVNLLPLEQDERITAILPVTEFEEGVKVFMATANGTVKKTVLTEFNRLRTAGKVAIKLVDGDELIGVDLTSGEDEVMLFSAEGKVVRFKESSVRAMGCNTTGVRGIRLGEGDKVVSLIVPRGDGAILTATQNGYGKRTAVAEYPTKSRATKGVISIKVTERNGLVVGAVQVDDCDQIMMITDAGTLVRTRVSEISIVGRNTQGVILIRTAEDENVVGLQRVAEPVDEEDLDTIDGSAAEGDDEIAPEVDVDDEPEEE

The test concerns the target S. aureus GyrB ATPase (Staphylococcus aureus, UniProt P0A0K8). As to the kind of experiment: biochemical. The following applies: compound at 1 μM; one value per test if tested more than once; read-out: % Inhibition of S. aureus GyrB ATPase. As to the method:
S. aureus GyrB ATPase Inhibition Activity: Compounds may be tested for inhibition of S. aureus GyrB ATPase activity using an ammonium molybdate/malachite green-based phosphate detection assay (Lanzetta, P. A., L. J. Alvarez, P. S. Reinach, and O. A. Candia, 1979, 100: 95-97). Assays can be performed in multiwell plates in 30 μl reactions containing: 50 mM Hepes buffer pH 7.5, 75 mM ammonium acetate, 8.0 mM magnesium chloride, 0.5 mM ethylenediaminetetraacetic acid, 5% glycerol, 1.0 mM 1,4-Dithio-DL-threitol, 200 nM bovine serum albumin, 1.0 μg/m1 sheared salmon sperm DNA, 250 pM E. coli GyrA, 250 pM S. aureus GyrB, 250 μM ATP, and compound in dimethylsulfoxide. Reactions can be quenched with 30 μl of ammonium molybdate/malachite green detection reagent containing 1.2 mM malachite green hydrochloride, 8.5 mM ammonium molybdate tetrahydrate, and 1 M hydrochloric acid. […] An IC50 measurement of compound potency for each compound can be determined from reactions performed in the presence of 10 different compound concentrations.
With `CCNC(=O)Nc1cc(-c2nc(C(F)(F)F)cs2)c(-c2ccc3c(=O)c(C(=O)NCCN4CCN(C)CC4)cn(CCO)c3c2)cn1` [Example 368, 7-{6-[(Ethylcarbamoyl)amino]-4-[4-(trifluoromethyl)-1,3-thiazol-2-yl]pyridin-3-yl}-1-(2-hydroxyethyl)-N-[2-(4-methylpiperazin-1-yl)ethyl]-4-oxo-1,4-dihydroquinoline-3-carboxamide], the inhibition at 1 µM is 87%.
To `CCNC(=O)Nc1cc(-c2nc(C(F)(F)F)cs2)c(-c2ccc3c(=O)c(C(=O)NCCN(C)C)cn(Cc4ccccc4)c3c2)cn1` [Example 356, 1-Benzyl-N-[2-(dimethylamino)ethyl]-7-{6-[(ethylcarbamoyl)amino]-4-[4-(trifluoromethyl)-1,3-thiazol-2-yl]pyridin-3-yl}-4-oxo-1,4-dihydroquinoline-3-carboxamide] belongs 85%; to `CCNC(=O)Nc1cc(-c2nc(C(F)(F)F)cs2)c(-c2ccc3c(=O)c(C(=O)NCCN(C)C)cn(CCO)c3c2)cn1` [Example 366, N-[2-(dimethylamino)ethyl]-7-{6-[(ethylcarbamoyl)amino]-4-[4-(trifluoromethyl)-1,3-thiazol-2-yl]pyridin-3-yl}-1-(2-hydroxyethyl)-4-oxo-1,4-dihydroquinoline-3-carboxamide], 99%.
As for `CCCNC(=O)Nc1cc(-c2nc(C(F)(F)F)cs2)c(-c2ccc3c(c2)c(=O)c(C(=O)N2CCN(C)CC2)cn3C2CN(C)C2)cn1` [Example 172, 1-(5-(1-(1-methylazetidin-3-yl)-3-(4-methylpiperazine-1-carbonyl)-4-oxo-1,4-dihydroquinolin-6-yl)-4-(4-(trifluoromethyl)thiazol-2-yl)pyridin-2-yl)-3-propylurea], the inhibition at 1 µM worked out at 107%.
To `CC(C)NC(=O)Nc1cc(-c2nc(C(F)(F)F)cs2)c(-c2ccc3c(c2)c(=O)c(C(=O)O)cn3CCN(C)C)cn1` [Example 189, 1-(2-(dimethylamino)ethyl)-7-(6-(3-isopropylureido)-4-(4-(trifluoromethyl)thiazol-2-yl)pyridin-3-yl)-4-oxo-1,4-dihydroquinoline-3-carboxylate] belongs 100%.
For `CCNC(=O)Nc1cc(-c2nc(C(F)(F)F)cs2)c(-c2ccc3c(c2)c(=O)c(C(=O)N2CCN(C)CC2)cn3C2CN(C)C2)cn1` [Example 167, 1-ethyl-3-(5-(1-(1-methylazetidin-3-yl)-3-(4-methylpiperazine-1-carbonyl)-4-oxo-1,4-dihydroquinolin-6-yl)-4-(4-(trifluoromethyl)thiazol-2-yl)pyridin-2-yl)urea] the value was 109%.
For `CCNC(=O)Nc1cc(-c2nc(C(F)(F)F)cs2)c(-c2ccc3c(c2)c(=O)c(C(=O)O)cn3C2CC2)cn1` [Example 20, 1-Cyclopropyl-6-(6-(3-ethylureido)-4-(4-(trifluoromethyl)thiazol-2-yl)pyridin-3-yl)-4-oxo-1,4-dihydroquinoline-3-carboxylic acid] the value was 96%; for `CCCNC(=O)Nc1cc(-c2nc(C(F)(F)F)cs2)c(-c2ccc3c(c2)c(=O)c(C(=O)N2CCN(C)CC2)cn3CCN(C)C)cn1` [Example 156, 1-(5-(1-(2-(dimethylamino)ethyl)-3-(4-methylpiperazine-1-carbonyl)-4-oxo-1,4-dihydroquinolin-6-yl)-4-(4-(trifluoromethyl)thiazol-2-yl)pyridin-2-yl)-3-propylurea], 105%; for `CCNC(=O)Nc1cc(-c2nc(C(F)(F)F)cs2)c(-c2ccc3c(c2)c(=O)c(C(=O)O)cn3CCCOC)cn1` [Example 12, 6-(6-(3-ethylureido)-4-(4-(trifluoromethyl)thiazol-2-yl)pyridin-3-yl)-1-(3-methoxypropyl)-4-oxo-1,4-dihydroquinoline-3-carboxylic acid], 93%.
With `CCNC(=O)Nc1cc(-c2nc(C(F)(F)F)cs2)c(-c2ccc3c(c2)c(=O)c(C(=O)O)cn3[C@@H]2CCCN(CCN(CC)CC)C2)cn1` [Example 288, (S)-ethyl 1-(1-(2-(diethylamino)ethyl)piperidin-3-yl)-6-(6-(3-ethylureido)-4-(4-(trifluoromethyl)thiazol-2-yl)pyridin-3-yl)-4-oxo-1,4-dihydroquinoline-3-carboxylic acid trifluoroacetate], the inhibition at 1 µM was found to be 99%.
To `CCNC(=O)Nc1cc(-c2nc(C(F)(F)F)cs2)c(-c2ccc3c(c2)c(=O)c(C(=O)O)cn3[C@H]2CCCC[C@@H]2N)cn1` [Example 314, 1-((1S,2S)-2-aminocyclohexyl)-6-(6-(3-ethylureido)-4-(4-(trifluoromethyl)thiazol-2-yl)pyridin-3-yl)-4-oxo-1,4-dihydroquinoline-3-carboxylic acid] belongs 114%; to `CCNC(=O)Nc1cc(-c2nc(C(F)(F)F)cs2)c(-c2ccc3c(c2)c(=O)c(C(=O)N2CCN(S(C)(=O)=O)CC2)cn3C(COC)COC)cn1` [Example 145, 1-{5-[1-(1,3-dimethoxypropan-2-yl)-3-{[4-(methylsulfonyl)piperazin-1-yl]carbonyl}-4-oxo-1,4-dihydroquinolin-6-yl]-4-[4-(trifluoromethyl)-1,3-thiazol-2-yl]pyridin-2-yl}-3-ethylurea], 92%; to `CCNC(=O)Nc1cc(-c2nc(C(F)(F)F)cs2)c(-c2ccc3c(c2)c(=O)c(C(=O)O)cn3[C@@H]2CCCN(CCO)C2)cn1` [Example 292, (R)-6-(6-(3-ethylureido)-4-(4-(trifluoromethyl)thiazol-2-yl)pyridin-3-yl)-1-(1-(2-hydroxyethyl)piperidin-3-yl)-4-oxo-1,4-dihydroquinoline-3-carboxylic acid], 102%.
To `CCCNC(=O)Nc1cc(-c2nc(C(F)(F)F)cs2)c(-c2ccc3c(c2)c(=O)c(C(=O)NCCO)cn3CCC2CCN(C)CC2)cn1` [Example 213] belongs 94%; to `CCNC(=O)Nc1cc(-c2nc(C(F)(F)F)cs2)c(-c2ccc3c(c2)c(=O)c(C(=O)N2CCNCC2)cn3CCN(C)C)cn1` [Example 158, 1-(5-(1-(2-(dimethylamino)ethyl)-4-oxo-3-(piperazine-1-carbonyl)-1,4-dihydroquinolin-6-yl)-4-(4-(trifluoromethyl)thiazol-2-yl)pyridin-2-yl)-3-ethylurea], 106%.
To `CCNC(=O)Nc1cc(-c2nc(C(F)(F)F)cs2)c(-c2ccc3c(=O)c(C(=O)NCCN(C)C)cn(CC(C)C)c3c2)cn1` [Example 344, N-[2-(dimethylamino)ethyl]-7-{6-[(ethylcarbamoyl)amino]-4-[4-(trifluoromethyl)-1,3-thiazol-2-yl]pyridin-3-yl}-1-(2-methylpropyl)-4-oxo-1,4-dihydroquinoline-3-carboxamide] belongs 95%; to `CCCNC(=O)Nc1cc(-c2nc(C(F)(F)F)cs2)c(-c2ccc3c(c2)c(=O)c(C(=O)O)cn3CCN2CCOCC2)cn1` [Example 193, 1-(2-morpholinoethyl)-4-oxo-6-(6-(3-propylureido)-4-(4-(trifluoromethyl)thiazol-2-yl)pyridin-3-yl)-1,4-dihydroquinoline-3-carboxylic acid], 93%; to `CCNC(=O)Nc1cc(-c2nc(C(F)(F)F)cs2)c(-c2ccc3c(c2)c(=O)c(C(=O)NCCO)cn3C(COC)COC)cn1` [Example 148, 1-(1,3-dimethoxypropan-2-yl)-6-(6-(3-ethylureido)-4-(4-(trifluoromethyl)thiazol-2-yl)pyridin-3-yl)-N-(2-hydroxyethyl)-4-oxo-1,4-dihydroquinoline-3-carboxamide], 93%.
Consider `CCNC(=O)Nc1cc(-c2nc(C(F)(F)F)cs2)c(-c2ccc3c(=O)c(C(=O)NCCN(C)C)cn(CCOC)c3c2)cn1` [Example 372, N-[2-(dimethylamino)ethyl]-7-{6-[(ethylcarbamoyl)amino]-4-[4-(trifluoromethyl)-1,3-thiazol-2-yl]pyridin-3-yl}-1-(2-methoxyethyl)-4-oxo-1,4-dihydroquinoline-3-carboxamide], for which the inhibition at 1 µM came out at 98%.
To `CCNC(=O)Nc1cc(-c2nc(C(F)(F)F)cs2)c(-c2ccc3c(=O)c(C(=O)NC)cn(CCO)c3c2)cn1` [Example 363, 7-{6-[(Ethylcarbamoyl)amino]-4-[4-(trifluoromethyl)-1,3-thiazol-2-yl]pyridin-3-yl}-1-(2-hydroxyethyl)-N-methyl-4-oxo-1,4-dihydroquinoline-3-carboxamide] belongs 95%.
To `CCNC(=O)Nc1cc(-c2nc(C(F)(F)F)cs2)c(-c2ccc3c(=O)c(C(=O)NCCCO)cn(CCOC)c3c2)cn1` [Example 371, 7-{6-[(Ethylcarbamoyl)amino]-4-[4-(trifluoromethyl)-1,3-thiazol-2-yl]pyridin-3-yl}-N-(3-hydroxypropyl)-1-(2-methoxyethyl)-4-oxo-1,4-dihydroquinoline-3-carboxamide] belongs 98%.
To `CCNC(=O)Nc1cc(-c2nc(C(F)(F)F)cs2)c(-c2ccc3c(c2)c(=O)c(C(=O)O)cn3CC2COCCN2)cn1` (centres unmarked) [Example 293] belongs 106%; to `CCNC(=O)Nc1cc(-c2nc(C(F)(F)F)cs2)c(-c2ccc3c(c2)c(=O)c(C(=O)O)cn3[C@H]2CCCN(Cc3cccn3C)C2)cn1` [Example 283, (S)-ethyl 6-(6-(3-ethylureido)-4-(4-(trifluoromethyl)thiazol-2-yl)pyridin-3-yl)-1-(1-((1-methyl-1H-pyrrol-2-yl)methyl)piperidin-3-yl)-4-oxo-1,4-dihydroquinoline-3-carboxylic acid], 102%.
